{
  "source": "patent US20240165173A1",
  "about": "“METHOD OF REDUCING URIC ACID BY USING LACTOBACILLUS PARACASEI LT12” (priority 2022, published 2024)",
  "key": {"[1]": {"system": "high uric acid mice model (potassium oxonate and hypoxanthine)", "procedure": "(§1) Tested animals are 5-week old male ICR mice purchased from Shanghai JSJ Laboratory Animal Co., Ltd., SPF grade. All mice were grown under the conditions of a temperature of 24±2° C., alternating 12 h light and 12 h dark, and free feeding and drinking for adaptation. After 1 week of adaptation, mice were randomly grouped into […], 7 mice in one group. The groups are normal control group, model group, positive control group, low dose Lactobacillus paracasei LT12 group, and high dose Lactobacillus paracasei LT12 group (see Table 3). Modeling period is two weeks and interfering period is four weeks. During modeling, except for the normal control group, the other groups were subjected to gavage with 300 mg/kg potassium oxonate and hypoxanthine (formulated into a suspension using 0.5% CMC-Na solution) every day for high uric acid modeling. During interference, except for the normal control group, the other groups were subjected to gavage with 300 mg/kg potassium oxonate and hypoxanthine every day for continued modeling. 2 h after modeling, each group of mice were administered at the dose according to FIG. 2. The drug samples for each group were dissolved in saline. The same amount of saline was administered to normal groups and model group.\n(§2) During modeling, blood was collected through cutting the tail to detect changes in serum uric acid every week. At the last two days of the experiment, fresh feces of mice of each group were collected and kept in −20° C. refrigerator. Before sacrifice, mice were fasted for 12 h. The last modeling was conducted. Blood was collected 1 h after modeling followed by sacrifice and dissection. Mice whole blood is placed at 4° C. for 2 h followed by centrifugation at 3000 rpm for 10 min. The serum was aliquoted and stored in −80° C. refrigerator. Mice liver, kidneys, and colon were collected. One of the kidneys was preserved in 4% […] for pathological analysis. Other tissue samples were immediately freezed in liquid nitrogen and stored at −80 ° C. for preservation.\n(§3) The levels of uric acid, creatinine, blood urea nitrogen, lactate dehydrogenase, xanthine oxidase (XOD), oxidative stress levels (glutathione (GSH), superoxide dismutase (SOD), glutathione peroxidase (GSH-Px), malondialdehyde (MDA), inflammatory factors (TNF-alpha, IL-1β, and IL-6)) were detected according to the detection method described in the specification in the kits. Pathological analysis on renal tissue were completed in corporation with Wuhan Servicebio Technology Co., Ltd., China. Immunoblotting analysis on renal uric acid transporter proteins were conducted according to internal methods in labs."}, "[2]": {"system": "high uric acid mice model (potassium oxonate and hypoxanthine)", "type": "in vivo, ICR mice", "parameters": "inflammatory cell infiltration (pathological score) / renal tubules hydropic degeneration (pathological score) / renal tubules atrophy (pathological score) / renal tubules dilation (pathological score) / connective tissue proliferation (pathological score) / Protein cast (pathological score): scale not given here", "procedure": "as §1, §2, §3"}, "[3]": {"system": "xanthine oxidase (XOD)", "type": "in vivo, ICR mice", "settings": "mice of the high uric acid model, after interference", "method": "Tested animals are 5-week old male ICR mice purchased from Shanghai JSJ Laboratory Animal Co., Ltd., SPF grade. All mice were grown under the conditions of a temperature of 24±2° C., alternating 12 h light and 12 h dark, and free feeding and drinking for adaptation. After 1 week of adaptation, mice were randomly grouped into 10 groups, 7 mice in one group. […] Modeling period is two weeks and interfering period is four weeks. During modeling, except for the normal control group, the other groups were subjected to gavage with 300 mg/kg potassium oxonate and hypoxanthine (formulated into a suspension using 0.5% CMC-Na solution) every day for high uric acid modeling. During interference, except for the normal control group, the other groups were subjected to gavage with 300 mg/kg potassium oxonate and hypoxanthine every day for continued modeling. 2 h after modeling, each group of mice were administered at the dose according to FIG. 2. The drug samples for each group were dissolved in saline. […]\nThe levels of uric acid, creatinine, blood urea nitrogen, lactate dehydrogenase, xanthine oxidase (XOD), oxidative stress levels (glutathione (GSH), superoxide dismutase (SOD), glutathione peroxidase (GSH-Px), malondialdehyde (MDA), inflammatory factors (TNF-alpha, IL-1β, and IL-6)) were detected according to the detection method described in the specification in the kits. […]"}, "[4]": {"settings": "after interference for four weeks, gavage, compared with model and normal group"}, "[5]": {"settings": "Positive group, score per mouse 3-1 to 3-7"}},
  "note": "Several values for one entry are separate records, joined by “and”; a condition that tells them apart may be missing. Equal values may be shown once.",
  "data": [
    {"molecule": "Oc1ncnc2[nH]ncc12", "note": "[allopurinol]", "values": [
      {"measurement": "blood urea nitrogen levels", "setting": "[1]; [4]", "value": "increased"},
      {"measurement": "serum creatinine levels", "setting": "[1]; [4]", "value": "increased"},
      {"measurement": "serum uric acid levels", "setting": "[1]; [4]", "value": "reduced to the levels of the normal group"},
      {"measurement": "renal toxicity", "setting": "[1]; mouse, in vivo", "value": "strong renal toxicity was generated"},
      {"measurement": "Protein cast (pathological score)", "setting": "[2]; [5]", "value": "1 and 0 (6×)"},
      {"measurement": "connective tissue proliferation (pathological score)", "setting": "[2]; [5]", "value": "0 (5×) and 1 (2×)"},
      {"measurement": "inflammatory cell infiltration (pathological score)", "setting": "[2]; [5]", "value": "0 (2×) and 1 (5×)"},
      {"measurement": "renal tubules atrophy (pathological score)", "setting": "[2]; [5]", "value": "0 (5×) and 1 (2×)"},
      {"measurement": "renal tubules dilation (pathological score)", "setting": "[2]; [5]", "value": "0 (3×) and 1 (4×)"},
      {"measurement": "renal tubules hydropic degeneration (pathological score)", "setting": "[2]; [5]", "value": "1 (4×) and 0 and 2 (2×)"},
      {"measurement": "Total score (pathological scores of mice kidneys)", "setting": "[2]; Positive group, sum over 7 mice", "value": 22},
      {"measurement": "damages in renal tissues", "setting": "[2]; pathological analysis, high uric acid mice", "value": "severe renal damages were caused"},
      {"measurement": "activities of xanthine oxidase in serum and liver", "setting": "[3]", "value": "the lowest"}
    ]}
  ]
}
